Paper PMC2826162 (Expert opinion on drug metabolism & toxicology, 2010)
Read-outs that look alike come from different tables or passages of the source.

How the values were obtained:
CYP73As = conditions: cinnamate hydroxylation; cited from earlier work
CYP3A4 = conditions: cited from earlier work
C334ACYP101 [1] = biological target: T1, C334ACYP101 (Pseudomonas putida, UniProt P00183, C335A); format: binding; conditions: for K4 apparent equilibrium constant: product (P) binding to ES; for K4 apparent equilibrium constant / K2 apparent equilibrium constant: pH 7.4, 24°C; for K2 apparent equilibrium constant: product binding to E; for K1K4: product of constants, ESP formed via ES
C334ACYP101 [2] = biological target: T1, C334ACYP101; assay: biochemical; format: binding
C334ACYP101 [3] = biological target: T1, C334ACYP101; assay: biochemical; format: binding; remark: listed apart in the source
[4] = test system: CYPC21 (steroid C-21 hydroxylase of bovine adrenocortical microsomes); conditions: low spin to five coordinated high spin; cited from earlier work
CYP2C9 [5] = conditions: cited from earlier work
CYP2C9 [6] = conditions: cited from earlier work; remark: listed apart in the source
CYP2B4 [7] = biological target: T2, CYP2B4 (Oryctolagus cuniculus, UniProt P00178); conditions: pH 7.4
CYP2B4 [8] = biological target: T2, CYP2B4
CYP2B4 [9] = biological target: T2, CYP2B4; conditions: cited from earlier work
CYP2B4 [10] = conditions: cited from earlier work

T2 sequence (P00178 whole entry): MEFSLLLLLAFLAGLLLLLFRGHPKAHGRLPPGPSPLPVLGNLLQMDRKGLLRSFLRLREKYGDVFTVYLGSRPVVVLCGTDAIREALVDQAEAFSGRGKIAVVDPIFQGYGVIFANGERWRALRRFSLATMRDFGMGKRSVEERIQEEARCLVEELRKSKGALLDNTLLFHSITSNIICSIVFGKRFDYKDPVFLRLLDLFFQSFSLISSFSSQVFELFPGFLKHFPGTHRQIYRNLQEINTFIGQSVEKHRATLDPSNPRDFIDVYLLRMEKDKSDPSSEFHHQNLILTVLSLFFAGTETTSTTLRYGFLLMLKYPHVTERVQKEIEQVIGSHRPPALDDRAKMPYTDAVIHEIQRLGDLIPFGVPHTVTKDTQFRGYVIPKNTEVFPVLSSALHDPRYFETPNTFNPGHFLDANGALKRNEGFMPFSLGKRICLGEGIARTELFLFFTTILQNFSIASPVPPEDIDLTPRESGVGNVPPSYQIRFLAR
T1 sequence (P00183 whole entry C335A): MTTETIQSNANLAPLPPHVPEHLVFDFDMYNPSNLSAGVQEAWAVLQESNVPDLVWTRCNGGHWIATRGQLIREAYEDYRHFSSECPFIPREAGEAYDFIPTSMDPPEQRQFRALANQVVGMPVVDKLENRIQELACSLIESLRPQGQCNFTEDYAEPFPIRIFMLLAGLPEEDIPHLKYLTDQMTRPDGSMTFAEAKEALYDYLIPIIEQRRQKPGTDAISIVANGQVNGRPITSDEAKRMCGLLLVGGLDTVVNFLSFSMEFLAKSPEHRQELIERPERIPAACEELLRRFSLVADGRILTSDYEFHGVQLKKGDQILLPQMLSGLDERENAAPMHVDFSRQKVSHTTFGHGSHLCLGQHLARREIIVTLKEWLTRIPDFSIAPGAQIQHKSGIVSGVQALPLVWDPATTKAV

Structure (SMILES): O=C(O)/C=C/c1ccc(O)cc1 [coumerate]
- product inhibition of substrate hydroxylation (CYP73As): not observable

Structure (SMILES): C[C@]12CC[C@H]3[C@@H](CCC4=CC(=O)CC[C@@]43C)[C@@H]1CC[C@@H]2O [testosterone]
- effect on metabolism of midazolum by CYP3A4 (CYP3A4): inhibits

Structure (SMILES): CC1(C)[C@H]2CC(=O)[C@]1(C)C[C@H]2O [5exo OH Camphor, 5-exo-OH camphor]
- K4 apparent equilibrium constant (C334ACYP101 [1]; OHcam 38 uM): .012 ± .001 µM⁻¹
- K2 apparent equilibrium constant (C334ACYP101 [1]; OHcam 38 uM): .039 ± .002 µM⁻¹
- K1K4 (C334ACYP101 [1]; OHcam 38 uM): .0080
- K4 apparent equilibrium constant (C334ACYP101 [1]; OHcam 66 uM): .0078 ± .0005 µM⁻¹
- K2 apparent equilibrium constant (C334ACYP101 [1]; OHcam 66 uM): .030 ± .004 µM⁻¹
- K1K4 (C334ACYP101 [1]; OHcam 66 uM): .0049
- K4 apparent equilibrium constant (C334ACYP101 [1]; OHcam 100 uM): .0063 ± .0004 µM⁻¹
- K2 apparent equilibrium constant (C334ACYP101 [1]; OHcam 100 uM): .034 ± .002 µM⁻¹
- K1K4 (C334ACYP101 [1]; OHcam 100 uM): .0043
- K4 apparent equilibrium constant (C334ACYP101 [1]; OHcam 133 uM): .0039 ± .0003 µM⁻¹
- K2 apparent equilibrium constant (C334ACYP101 [1]; OHcam 133 uM): .034 ± .002 µM⁻¹
- K1K4 (C334ACYP101 [1]; OHcam 133 uM): .0024

Structure (SMILES): O=C1C2CC3CC(C2)CC1C3 [2 Adone, 2-Adamantanone]
- Kd (C334ACYP101 [2]): 2.9 ± 0.2 µM
- Kd (C334ACYP101 [3]; KD^APP Transient, C334ACYP101, 10-13°C jump, 0.05 M K-PO4 buffer + 0.1 M KCl): 6 ± 2 µM

Structure (SMILES): C[C@]12CCC(=O)C=C1CC[C@@H]1[C@@H]2CC[C@]2(C)C(=O)CC[C@@H]12 [androstenedione]
- Type I spectral change [4]: elicited

Structure (SMILES): CC12CCC(CC1=O)C2(C)C (stereo not drawn) [Cam, Camphor]
- Kd (C334ACYP101 [2]): 4.8 ± 0.8 µM
- Kd (C334ACYP101 [3]; KD^APP Kinetic): 6.2 ± 0.9 µM
- Kd (C334ACYP101 [3]; KD^APP Transient): 5 ± 0.5 µM
- peak to trough ratio of Type I difference spectrum (CYP101): ~0.87

Structure (SMILES): COc1cc2c(c3oc(=O)c4c(c13)CCC4=O)[C@@H]1C=CO[C@@H]1O2 [aflatoxin B1]
- effect on metabolism of α-NF by CYP3A4 (CYP3A4): has no effect

Structure (SMILES): Nc1ccc(S(=O)(=O)c2ccc(NO)cc2)cc1 [N-hydroxydapsone]
- effect on coupling efficiency of flurbiprofen hydroxylation (CYP2C9 [5]): enhanced
- effect on flurbiprofen hydroxylation (CYP2C9 [5]): stimulating

Structure (SMILES): O=c1cc(-c2ccccc2)oc2c1ccc1ccccc12 [α-NF, α-naphthoflavone]
- effect on metabolism of aflatoxin B1 by CYP3A4 (CYP3A4): activates

Structure (SMILES): CC(C(=O)O)c1ccc(-c2ccccc2)c(F)c1 (stereo not drawn) [Flurbiprofen, flurbiprofen]
- Type I spectral change in the CYP2C9 (CYP2C9 [6]): elicits

Structure (SMILES): Nc1ccc(S(=O)(=O)c2ccc(N)cc2)cc1 [dapsone]
- effect on coupling efficiency of flurbiprofen hydroxylation (CYP2C9 [5]): enhanced
- effect on flurbiprofen hydroxylation (CYP2C9 [5]): stimulating
- Type I spectral change in the CYP2C9 (CYP2C9 [6]; static spectroscopy): does not elicit

Structure (SMILES): C[C@H](Cc1ccccc1)NCc1ccccc1 [DesBNZ, desmethylbenzphetamine]
- Kd (CYP2B4 [7]): 701 ± 150 µM
- binding of product formed in situ (CYP2B4 [8]): remains bound
- time of Site II re-ligation to form the final Type II complex (slow phase) (CYP2B4 [9]): ≤ 20 milliseconds
- strength of hetero atom binding to Site II (L6) (CYP2B4 [10]): as strongly as water
